Assay results from US20190046536A1, “Combination Therapy” (Eli Lilly and Company, priority 2016, published 2019).

Experiment: Stability of the crystal form
Format: physicochemical
Settings: room temperature and relative humidity greater than about 15%

crystal form stability: stable crystal form
Compound: COc1cnc(C(=O)Nc2ccc(F)c([C@]34CN(c5ncc(F)cn5)C[C@H]3CSC(N)=N4)c2)cn1 [Example 2, N-[3-[(4aR,7aS)-2-Amino-6-(5-fluoropyrimidin-2-yl)-4,4a, 5,7-tetrahydropyrrolo[3,4-d][1,3]thiazin-7a-yl]-4-fluoro-phenyl]-5-methoxy-pyrazine-2-carboxamide]
